Results reported in patent US6992103B2, “Benzamide derivatives, processes for their preparation, and their pharmaceutical use” (SmithKline Beecham P.L.C., priority 2001, dated 2006).
Read-outs that look alike come from different tables or passages of the source.

What was measured:
Assay type in all cases: biochemical
Asp-2 = Asp-2 (Homo sapiens, UniProt P56817); assay: Asp-2 Inhibitory Assay (FAM-[SEVNLDAEFK]-TAMRA substrate cleavage, fluorescence); details: Assay (I)
Procedure: (I) Asp-2 Inhibitory Assay
(§1) For each compound being assayed, in a 384 well plate, is added:
(§2) a) 1 μl of a DMSO solution of the test compound (IC50 curve uses ten 1 in 2 serial dilutions from 500 μM).
b) 10 μl of substrate (FAM-[SEVNLDAEFK]-TAMRA) solution in buffer. This is prepared by diluting 2 ml of a 2 mM DMSO solution of the substrate into 400 ml of buffer (100 mM Sodium acetate pH=4.5, 1 l Milli-Q water, 0.06% Triton X-100 (0.5 ml/l), pH adjusted to 4.5 using glacial acetic acid). Aminomethyl fluorescein (FAM) and tetramethyl rhodamine (TAMRA) are fluorescent molecules which co-operate to emit fluorescence at 535 nm upon cleavage of the SEVNLDAEFK peptide. c) 10 μl enzyme solution. This is prepared by diluting 16 ml of a 500 nM enzyme solution into 384 ml of buffer (prepared as above).
(§3) Blank wells (enzyme solution replaced by buffer) are included as controls on each plate. Wells are incubated for 1 h at room temperature and fluorescence read using a Tecan Ultra Fluorimeter/Spectrophotometer (485 nm excitation, 535 nm emission).

Cathepsin D = Cathepsin D (Homo sapiens, UniProt P07339); assay: Cathepsin D Inhibitory Assay (FAM-SEVNLDAEFK-TAMRA substrate cleavage, fluorescence); details: Assay (III)
Procedure: (II) Cathepsin D Inhibitory Assay
as §1, §2
b) 10 μl of substrate (FAM-SEVNLDAEFK-TAMRA) solution in buffer. This is prepared by diluting 2 ml of a 2 mM DMSO solution of the substrate into 400 ml of buffer (100 mM Sodium acetate pH=4.5, 1 l Milli-Q water, 0.06% Triton X-100 (0.5 ml/l), pH adjusted to 4.5 using glacial acetic acid). c) 10 μl enzyme solution. This is prepared by diluting 1.6 ml of a 200 unit/ml (in 10 mM HCl) enzyme solution into 398.4 ml of buffer (prepared as above).
as §3

Asp-1 = target: T1, Asp-1 (Homo sapiens, UniProt Q9Y5Z0); assay: Asp-1 Inhibitory Assay (FAM-[SEVNLDAEFK]-TAMRA substrate cleavage, fluorescence); details: Assay (II), pH 4.5, 2 h room temperature
T1 sequence (Q9Y5Z0 63-518): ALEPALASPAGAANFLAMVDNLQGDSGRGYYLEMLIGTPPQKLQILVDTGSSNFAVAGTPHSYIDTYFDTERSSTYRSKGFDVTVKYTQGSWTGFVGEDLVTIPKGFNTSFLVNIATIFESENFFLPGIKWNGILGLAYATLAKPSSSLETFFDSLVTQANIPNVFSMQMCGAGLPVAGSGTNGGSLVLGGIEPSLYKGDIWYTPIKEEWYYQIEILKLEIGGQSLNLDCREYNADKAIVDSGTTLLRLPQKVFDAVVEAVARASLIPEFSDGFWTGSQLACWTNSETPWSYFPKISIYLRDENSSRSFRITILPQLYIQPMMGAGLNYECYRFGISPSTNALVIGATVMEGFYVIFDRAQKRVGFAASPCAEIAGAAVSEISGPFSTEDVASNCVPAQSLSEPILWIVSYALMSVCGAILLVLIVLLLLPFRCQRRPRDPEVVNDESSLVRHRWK
Procedure: (II) Asp-1 Inhibitory Assay
as §1, §2
b) 10 μl of substrate (FAM-[SEVNLDAEFK]-TAMRA) solution in buffer. This is prepared by diluting 2 ml of a 2 mM DMSO solution of the substrate into 400 ml of buffer (100 mM Sodium acetate pH=4.5, 1 l Milli-Q water, 0.06% Triton X-100 (0.5 ml/l), pH adjusted to 4.5 using glacial acetic acid). c) 10 μl enzyme solution. This is prepared by diluting 4 ml of a 6.3 μM enzyme solution into 496 ml of buffer (100 mM Sodium acetate pH=4.5, 40 mM sodium chloride, 900 ml Milli-Q water, 100 ml glycerol, 0.2% CHAPS (2 g/l), pH adjusted to 4.5 using glacial acetic acid).
Blank wells (enzyme solution replaced by buffer) are included as controls on each plate. Wells are incubated for 2 h at room temperature and fluorescence read using a Tecan Ultra Fluorimeter/Spectrophotometer (485 nm excitation, 535 nm emission).

[1] = range given for a group of Examples, read-out: range of inhibition (Asp-2)
[2] = range given for a group of Examples, read-out: range of inhibition (CatD)
[3] = pH 4.5, 1 h room temperature, read-out: Asp-2 IC50
[4] = pH 4.5, 1 h room temperature, read-out: Cat. D IC50

Sequence of Asp-2 (P56817 46-501): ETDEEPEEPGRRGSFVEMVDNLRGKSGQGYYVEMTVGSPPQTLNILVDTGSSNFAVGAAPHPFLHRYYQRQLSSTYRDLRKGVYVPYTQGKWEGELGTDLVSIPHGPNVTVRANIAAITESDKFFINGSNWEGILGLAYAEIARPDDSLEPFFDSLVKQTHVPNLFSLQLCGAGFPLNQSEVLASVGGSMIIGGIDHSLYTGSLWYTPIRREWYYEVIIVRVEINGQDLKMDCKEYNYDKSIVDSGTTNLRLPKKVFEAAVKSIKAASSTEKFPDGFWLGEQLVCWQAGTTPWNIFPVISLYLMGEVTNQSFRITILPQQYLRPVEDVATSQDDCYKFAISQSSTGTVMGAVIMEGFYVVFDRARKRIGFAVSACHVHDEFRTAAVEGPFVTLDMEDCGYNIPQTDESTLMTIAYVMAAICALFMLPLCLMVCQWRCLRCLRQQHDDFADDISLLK
Sequence of Cathepsin D (P07339 65-412, species assumed): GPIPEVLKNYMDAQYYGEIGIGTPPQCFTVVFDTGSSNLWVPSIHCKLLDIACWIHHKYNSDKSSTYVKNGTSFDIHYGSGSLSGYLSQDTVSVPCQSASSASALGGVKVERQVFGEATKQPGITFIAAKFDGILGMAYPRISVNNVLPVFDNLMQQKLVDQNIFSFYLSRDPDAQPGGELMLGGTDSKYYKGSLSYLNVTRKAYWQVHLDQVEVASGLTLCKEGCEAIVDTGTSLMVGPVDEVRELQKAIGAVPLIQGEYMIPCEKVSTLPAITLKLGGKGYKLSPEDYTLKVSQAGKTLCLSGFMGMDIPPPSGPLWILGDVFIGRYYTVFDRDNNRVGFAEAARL

Row | Structure (SMILES) | IC50 (Asp-2; [1]) | IC50 (Cathepsin D; [2]) | IC50 (Asp-2; [3]) | IC50 (Asp-1) | IC50 (Cathepsin D; [4])
1 | C[C@H](C[C@H](O)[C@H](Cc1ccccc1)NC(=O)c1ccc(F)c(N2CCCC2=O)c1)C(=O)NCCC(C)(C)C (stereo in doubt) [Example E1, N-[(1S,2S,4R)-1-Benzyl-4-(3,3-dimethylbutylcarbamoyl)-2-hydroxypentyl]-4-fluoro-3-(2-oxopyrrolidin-1-yl)-benzamide] |  |  | 0.6 µM | 6 µM | 13 µM
2 | CCCOc1cc(C(=O)N[C@@H](Cc2ccccc2)[C@@H](O)C[C@@H](C)C(=O)NCCC(C)(C)C)cc(N2CCCC2=O)c1 [Example E4, N-[(1S,2S,4R)-1-Benzyl-4-(3,3-dimethylbutylcarbamoyl)-2-hydroxypentyl]-3-(2-oxopyrrolidin-1-yl)-5-propoxybenzamide] |  |  | 0.035 µM | 0.15 µM | 1.8 µM
3 | C[C@H](C[C@H](O)[C@H](Cc1ccccc1)NC(=O)c1cc(N2CCCC2=O)cc(N2CCCC2=O)c1)C(=O)NC1CC2CCC1C2 (stereo partly drawn) [Example E8, N-[(1S,2S,4R)-1-Benzyl-4-(bicyclo[2.2.1]hept-2-ylcarbamoyl)-2-hydroxypentyl]-3,5-bis-(2-oxopyrrolidin-1-yl)benzamide] | 0.002 to 0.03 µM | 0.34 to 3 µM |  |  | 
4 | C=CCOc1cc(C(=O)N[C@@H](Cc2ccccc2)[C@@H](O)C[C@@H](C)C(=O)NCCC(C)(C)C)cc(N2CCCC2=O)c1 [Example E3, 3-Allyloxy-N-[(1S,2S,4R)-1-benzyl-4-(3,3-dimethylbutylcarbamoyl)-2-hydroxypentyl]-5-(2-oxopyrrolidin-1-yl)-benzamide] |  |  | 0.06 µM | 0.42 µM | 2.9 µM

Further lines, results first:

Row | IC50 (Asp-2; [1]) | IC50 (Cathepsin D; [2]) | IC50 (Asp-2; [3]) | IC50 (Asp-1) | IC50 (Cathepsin D; [4]) | Structure (SMILES)
5 | 0.002 to 0.03 µM | 0.34 to 3 µM |  |  |  | C[C@H](C[C@H](O)[C@H](Cc1ccccc1)NC(=O)c1cc(N2CCCC2=O)cc(N2CCCC2=O)c1F)C(=O)NC1CC2CCC1C2 (stereo partly drawn) [Example E22, N-[(1S,2S,4R)-1-Benzyl-4-(bicyclo[2.2.1]hept-2-ylcarbamoyl)-2-hydroxypentyl]-2-fluoro-3,5-bis-(2-oxopyrrolidin-1-yl)benzamide]
6 | 0.002 to 0.03 µM | 0.34 to 3 µM |  |  |  | CC(C)Oc1cc(C(=O)N[C@@H](Cc2ccccc2)[C@@H](O)C[C@@H](C)C(=O)NC2CC3CCC2C3)cc(N2CCCC2=O)c1 (stereo partly drawn) [Example E14, N-[(1S,2S,4R)-1-Benzyl-4-(bicyclo[2.2.1]hept-2-ylcarbamoyl)-2-hydroxypentyl]-3-isopropoxy-5-(2-oxopyrrolidin-1-yl)benzamide]
7 | 0.002 to 0.03 µM | 0.34 to 3 µM |  |  |  | C[C@H](C[C@H](O)[C@H](Cc1ccccc1)NC(=O)c1cccc(N2CCCC2=O)c1F)C(=O)NC1CC2CCC1C2 (stereo partly drawn) [Example E21, N-[(1S,2S,4R)-1-Benzyl-4-(bicyclo[2.2.1]hept-2-ylcarbamoyl)-2-hydroxypentyl]-2-fluoro-3-(2-oxopyrrolidin-1-yl)-benzamide]
8 | 0.002 to 0.03 µM | 0.34 to 3 µM |  |  |  | CC(C)Oc1cc(C(=O)N[C@@H](Cc2ccccc2)[C@@H](O)C[C@@H](C)C(=O)NC2CCC2)cc(N2CCCC2=O)c1 [Example E26, N-[(1S,2S,4R)-1-Benzyl-4-(cyclobutylcarbamoyl)-2-hydroxypentyl]-3-isopropoxy-5-(2-oxopyrrolidin-1-yl)benzamide]
9 | 0.002 to 0.03 µM | 0.34 to 3 µM |  |  |  | CC(=O)Nc1cc(C(=O)N[C@@H](Cc2ccccc2)[C@@H](O)C[C@@H](C)C(=O)NC2CC3CCC2C3)cc(N2CCCC2=O)c1 (stereo partly drawn) [Example E10, 3-Acetylamino-N-[(1S,2S,4R)-1-benzyl-4-(bicyclo[2.2.1]hept-2-ylcarbamoyl)-2-hydroxypentyl]-5-(2-oxopyrrolidin-1-yl)benzamide]
10 | 0.002 to 0.03 µM | 0.34 to 3 µM |  |  |  | C[C@H](C[C@H](O)[C@H](Cc1ccccc1)NC(=O)c1cc(N2CCCC2=O)cc(N2CCCC2=O)c1F)C(=O)NC1CCC(C(C)(C)C)CC1 (stereo partly drawn) [Example E32, N-[(1S,2S,4R)-1-Benzyl-4-(4-tert-butylcyclohexylcarbamoyl)-2-hydroxypentyl]-2-fluoro-3,5-bis-(2-oxopyrrolidin-1-yl)benzamide]
